# Assay results published in US20030199671A1, “Binding molecules for Fc-region polypeptides” (priority 2001, published 2003).
# Values joined by “and” are separate entries in the source; they are usually repeats but may differ in a detail not shown here. Equal entries are not always repeated. Where two headings read alike, the source gives them in different places. Positions of bridges follow the written chain, without caps; N, C: chain ends. Residues, ends and D or L forms follow the SMILES beside them. *: point of attachment. 5FAM = O=C1OC2(c3ccc(O)cc3Oc3cc(O)ccc32)c2ccc(C(=O)*)cc21
# Assays:
# [1] = biological target: Fc (mixture of human plasma IgG isoforms); assay: Fluorescence anisotropy binding, fluorescein-labeled peptide; conditions: 2 nM labeled peptide; 50 mM Tris-HCl, 200 mM NaCl, pH 8.0, 0.01% Tween 20
# Procedure: (§1) Peptides were synthesized by BACHEM Bioscience, Inc., (King of Prussia, Pa.), fluorescein labeled and purified by HPLC. Binding studies were performed using either a mixture of human plasma IgG isoforms (the Fc target) or the individual human plasma IgG isoforms: IgG1, IgG2, IgG3, or IgG4. All Fc target proteins were obtained from Calbiochem.
# (§2) All measurements were performed in 384 well microplates with 20 nM fluorescein-labeled peptide and various concentrations of the IgG isoform in a volume of between 10 and 20 μl using a Tecan Polarion fluorescence polarization plate reader. All binding buffers included 0.01% (v/v) Tween 20 to prevent peptide adsorption to the microplate. The binding mixture was equilibrated for 10 minutes in the microplate at 30° C. prior to performing the measurement.
# (§3) Peptides were synthesized, fluorescein-labeled and HPLC purified as described above. Binding studies were performed using either a mixture of human plasma IgG isoforms (the Fc protein) or the individual human plasma IgG isoforms: IgG1, IgG2, IgG3, or IgG4.
# (§4) Measurements were performed in 384-well microplates with 2 nM fluorescein-labeled peptide and a varied concentration of the IgG isoform target in a volume of 10 μl using a Tecan Polarion fluorescence polarization plate reader. The Fc binding buffer was 50 mM Tris-HCl, 200 mM NaCl, pH 8.0, 0.01% Tween 20. The IgG binding buffer was PBS with 0.01% Tween 20. The binding mixtures were equilibrated for 10 minutes in the microplate at 30° C. prior to performing the measurements.
# human plasma IgG3 [2] = biological target: T1, human plasma IgG3 (Homo sapiens, UniProt P01860); assay: as above; conditions: 2 nM labeled peptide; PBS with 0.01% Tween 20
# T1 construct: the individual human plasma IgG isoforms: IgG1, IgG2, IgG3, or IgG4; purchased Calbiochem; host or cells: human plasma
# Procedure: as §1, §2, §3, §4
# IgG3 = IgG3 (Homo sapiens, UniProt P01860); assay type: binding; parameters: all human subtypes derived from myeloma patients; purchased Calbiochem 400124; host or cells: myeloma patients; conditions: Table 9; immobilized peptide, 5.0 mg/ml resin load
# Procedure: In addition, the following targets, all unfractionated IgGs, were also evaluated with selected immobilized peptides for species specificity characterization in a similar format: human IgG, goat IgG, bovine IgG, and mouse IgG (Sigma, product nos. I4506, I5256, I5506, and I15381, respectively). In addition, 10 μl aliquots of hydrolyzed NHS-activated Sepharose 4 Fast Flow (Amersham Pharmacia Biotech, product no. 17-0906-01) and immobilized recombinant Protein A (RepliGen Corp., product no. IPA-400) were also assayed as negative and positive controls. IgG targets were diluted into 10 mM phosphate buffer containing 150 mM NaCl and 0.01% Tween 20, pH 7.2 (PBST) or 50 mM Tris buffer containing, 150 mM NaCl and 0.01% Tween-20, pH 7.5 (TBST). Batch (static) binding and elution studies were conducted in a 96-well assay filterplate (Millipore MultiScreen-HV, with 0.45 μm Durapore membrane, product no. MAHVN4510). The target was allowed to incubate with the resin for 1-1.5 hours with shaking at room temperature. Unbound target was collected by centrifugation of samples from the assay plate directly into a low-UV absorbing 96-well collection plate (Costar, product no. 3635 or Greiner, product no. 655801). The unbound target was then quantitated by reading the absorbance at 280 nm (normalized to 1 cm pathlength, 1.4 mg/ml A280 extinction coefficient) of the collection plate on a microplate spectrophotometer (Molecular Devices Corp., SPECTRAmax PLUS) against a buffer blank.
# The percentage bound target was determined by subtracting the mass determined as unbound from the corresponding condition's control values (control non-filtered added directly to the collection plate and/or the negative control). The assay plate was washed (3×) with 200 μl of binding buffer by vacuum filtration followed by addition of 100 μl of various elution conditions (e.g.: 0.1 M sodium bicarbonate buffer, pH 8.5 and/or 0.1 M sodium citrate buffer, pH 4.0). After a 30-60 minute incubation with shaking at room temperature, the eluted target was collected by centrifugation of the assay plate into another collection plate and quantitated in a similar manner. Percent elution of total load was then determined to characterize elution recovery efficiency under various conditions. The assay plate was then washed (3×) with 200 μl of binding buffer by vacuum filtration followed by addition of a resin cleaning condition (e.g., 0.1M CAPS buffer (3-[Cyclohexylamino]-1-propane-sulfonic acid), pH 11.5, to regenerate the resin for re-use. Percentage mass balance determination was calculated to be 90-100% on average.
# human plasma IgG2 = biological target: T2, human plasma IgG2 (Homo sapiens, UniProt P01859); assay: Fluorescence anisotropy binding, Oregon Green labeled peptide
# T2 construct: the individual human plasma IgG isoforms: IgG1, IgG2, IgG3, or IgG4; purchased Calbiochem; host or cells: human plasma
# Procedure: (§5) Peptides were synthesized by BACHEM and then Oregon Green labeled and HPLC purified. Binding studies were performed using human plasma IgG isoforms: IgG1, IgG2, IgG3, and IgG4, obtained from Calbiochem.
# (§6) Binding studies were carried out at either pH 4.0, 7.5, or 9.5, with or without salt in the following buffers:
# (§7) 2) 10 mM Sodium Citrate, 500 mM Sodium Chloride, 0.01% Tween 20, pH 4.0;
# (§8) 4) […], 500 mM Sodium Chloride, 0.01% Tween 20, pH 7.5;
# (§9) 5) 10 mM Sodium Bicarbonate, 0.01% Tween 20, pH 9.5;
# (§10) 6) 10 mM Sodium Bicarbonate, 500 mM Sodium Chloride, 0.01% Tween 20, pH 9.5; or […]
# human plasma IgG1 = biological target: T3, human plasma IgG1 (Homo sapiens, UniProt P01857); assay: as above
# T3 construct: the individual human plasma IgG isoforms: IgG1, IgG2, IgG3, or IgG4; purchased Calbiochem; host or cells: human plasma
# Procedure: as §5, §6, §7, §8, §9, §10
# human plasma IgG3 [3] = biological target: T1, human plasma IgG3; assay: as above
# Procedure: as §5, §6, §7, §8, §9, §10
# human plasma IgG4 = biological target: T4, human plasma IgG4 (Homo sapiens, UniProt P01861); assay: as above
# T4 construct: the individual human plasma IgG isoforms: IgG1, IgG2, IgG3, or IgG4; purchased Calbiochem; host or cells: human plasma
# Procedure: as §5, §6, §7, §8, §9, §10
# human IgG = assay type: binding; conditions: Table 11; unfractionated IgG
# How it was run: (§11)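 Static binding, peptide resin + IgG, 1-1.5 h RT with shaking, PBST pH 7.2 or TBST pH 7.5. Flow-through read at A280 vs buffer blank; % bound = control minus unbound. Elution at pH 8.5 bicarbonate and/or pH 4.0 citrate, 30-60 min.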
# goat IgG = assay type: binding; conditions: Table 11; unfractionated IgG
# How it was run: as §11
# bovine IgG = assay type: binding; conditions: Table 11; unfractionated IgG
# How it was run: as §11
# mouse IgG = assay type: binding; conditions: Table 11; unfractionated IgG
# How it was run: as §11
# human IgG1 = biological target: T5, human IgG1 (Homo sapiens, UniProt P01857); assay type: binding; conditions: Table 9; immobilized peptide, 5.0 mg/ml resin load
# T5 construct: all human subtypes derived from myeloma patients; purchased Calbiochem 400120; host or cells: myeloma patients
# How it was run: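 Steps: dilute IgG in PBST or TBST; incubate with immobilized peptide 1-1.5 h, RT; collect unbound by centrifugation; measure A280; wash three times; elute with 0.1 M sodium bicarbonate pH 8.5 and/or 0.1 M sodium citrate pH 4.0 for 30-60 min and quantitate.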
# human IgG2 = biological target: T6, human IgG2 (Homo sapiens, UniProt P01859); assay type: binding; conditions: Table 9; immobilized peptide, 5.0 mg/ml resin load
# T6 construct: all human subtypes derived from myeloma patients; purchased Calbiochem 400122; host or cells: myeloma patients
# How it was run: (§12)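 Read-out is A280 of unbound IgG (1.4 mg/ml extinction coefficient), with percent bound derived against non-filtered or negative controls. Targets were incubated with immobilized peptides in PBST or TBST for 1-1.5 h at room temperature. Hydrolyzed Sepharose and immobilized Protein A serve as negative and positive controls.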
# IgG4 = IgG4 (Homo sapiens, UniProt P01861); assay type: binding; parameters: all human subtypes derived from myeloma patients; purchased Calbiochem 400126; host or cells: myeloma patients; conditions: Table 9; immobilized peptide, 5.0 mg/ml resin load
# How it was run: as §12
# T4 sequence (P01861 1-327 isoform P01861-1): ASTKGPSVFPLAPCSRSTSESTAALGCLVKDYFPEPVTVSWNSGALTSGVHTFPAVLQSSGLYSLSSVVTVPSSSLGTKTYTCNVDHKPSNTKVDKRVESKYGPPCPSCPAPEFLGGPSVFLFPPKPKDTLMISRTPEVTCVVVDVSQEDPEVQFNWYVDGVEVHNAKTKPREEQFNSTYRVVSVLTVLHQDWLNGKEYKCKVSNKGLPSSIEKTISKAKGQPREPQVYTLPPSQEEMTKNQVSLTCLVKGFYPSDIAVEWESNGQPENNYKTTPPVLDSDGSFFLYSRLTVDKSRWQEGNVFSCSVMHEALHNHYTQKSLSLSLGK
# T3 sequence (P01857 1-330 isoform P01857-1): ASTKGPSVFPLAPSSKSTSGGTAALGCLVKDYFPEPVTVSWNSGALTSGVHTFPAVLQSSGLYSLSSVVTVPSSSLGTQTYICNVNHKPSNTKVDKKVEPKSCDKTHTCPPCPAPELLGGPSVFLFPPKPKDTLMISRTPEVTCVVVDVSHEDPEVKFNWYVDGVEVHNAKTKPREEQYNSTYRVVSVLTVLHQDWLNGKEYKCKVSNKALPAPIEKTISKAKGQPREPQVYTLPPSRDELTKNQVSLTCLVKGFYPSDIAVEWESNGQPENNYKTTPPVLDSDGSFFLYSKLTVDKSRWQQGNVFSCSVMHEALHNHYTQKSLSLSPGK
# T2 sequence (P01859 1-326 isoform P01859-1): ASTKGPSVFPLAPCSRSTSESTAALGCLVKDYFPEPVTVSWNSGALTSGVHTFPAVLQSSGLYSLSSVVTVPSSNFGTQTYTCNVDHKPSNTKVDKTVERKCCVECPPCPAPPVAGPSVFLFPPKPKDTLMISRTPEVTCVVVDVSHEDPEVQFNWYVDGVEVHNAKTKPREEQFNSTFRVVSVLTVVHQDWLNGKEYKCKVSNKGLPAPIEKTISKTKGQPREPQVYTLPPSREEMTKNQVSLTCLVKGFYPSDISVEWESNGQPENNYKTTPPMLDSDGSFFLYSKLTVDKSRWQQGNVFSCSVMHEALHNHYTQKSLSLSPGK
# T1 sequence (P01860 1-377 isoform P01860-1): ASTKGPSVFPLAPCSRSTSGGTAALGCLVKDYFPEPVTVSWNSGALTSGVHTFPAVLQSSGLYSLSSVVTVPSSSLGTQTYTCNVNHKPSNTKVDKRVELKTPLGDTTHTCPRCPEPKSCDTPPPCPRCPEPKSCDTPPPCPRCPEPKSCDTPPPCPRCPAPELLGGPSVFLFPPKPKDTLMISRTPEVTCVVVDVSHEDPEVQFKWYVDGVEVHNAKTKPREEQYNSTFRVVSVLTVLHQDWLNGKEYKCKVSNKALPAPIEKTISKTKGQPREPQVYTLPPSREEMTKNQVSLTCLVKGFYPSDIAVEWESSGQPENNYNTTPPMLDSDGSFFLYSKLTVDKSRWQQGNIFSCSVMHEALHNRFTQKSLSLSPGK
# IgG4, sequence (P01861 1-327 isoform P01861-1): as the sequence (P01861 1-327 isoform P01861-1) above
# T5 sequence (P01857 1-330 isoform P01857-1): as the sequence (P01857 1-330 isoform P01857-1) above
# T6 sequence (P01859 1-326 isoform P01859-1): as the sequence (P01859 1-326 isoform P01859-1) above
# IgG3, sequence (P01860 1-377 isoform P01860-1): as the sequence (P01860 1-377 isoform P01860-1) above
compound,measurement,setting,value
CC(=O)NCC(=O)N[C@@H](CC(=O)O)C(=O)N[C@@H](CCCNC(=N)N)C(=O)N[C@@H](CCCNC(=N)N)C(=O)N[C@@H](C)C(=O)N[C@H]1CSSC[C@@H](C(=O)N[C@@H](C)C(=O)NCC(=O)N[C@@H](Cc2c[nH]cn2)C(=O)N[C@@H](CCC(=O)O)C(=O)N2CCC[C@H]2C(=O)NCC(=O)N2CCC[C@H]2C(=O)N[C@@H](CCC(=O)O)C(=O)NCC(=O)NCC(=O)NCC(=O)N[C@@H](CCCCNC(=O)c2ccc3c(c2)C(=O)OC32c3ccc(O)cc3Oc3cc(O)ccc32)C(N)=O)NC(=O)[C@H](Cc2c[nH]c3ccccc23)NC(=O)[C@H](C(C)C)NC(=O)[C@H](CC(C)C)NC(=O)[C@H](C)NC(=O)CNC(=O)[C@H](CO)NC(=O)[C@H](Cc2c[nH]c3ccccc23)NC(=O)[C@H](CC(=O)O)NC(=O)[C@H](CCCNC(=N)N)NC(=O)[C@H](CO)NC1=O [DX301] (Ac-GDRRACSRDWSGALVWCAGHEPGPEGGGK(5FAM)-NH2; disulfide 6-17),Kd,[1],6.8 ± 4.3 µM
same,KD (μM) IgG3,human plasma IgG3 [2],No binding
CC(=O)N[C@@H](C)C(=O)NCC(=O)N[C@H](C(=O)N[C@@H](Cc1ccc(O)cc1)C(=O)N[C@@H](Cc1c[nH]c2ccccc12)C(=O)N[C@H]1CSSC[C@@H](C(=O)N[C@@H](CC(=O)O)C(=O)N2CCC[C@H]2C(=O)N[C@@H](C)C(=O)N2CCC[C@H]2C(=O)NCC(=O)N2CCC[C@H]2C(=O)N[C@@H](CCC(=O)O)C(=O)NCC(=O)NCC(=O)NCC(=O)N[C@@H](CCCCN)C(N)=O)NC(=O)[C@@H]2CCCN2C(=O)[C@H](CC(C)C)NC(=O)[C@H](CCC(=O)O)NC(=O)[C@H](Cc2c[nH]c3ccccc23)NC(=O)[C@H](Cc2ccccc2)NC(=O)[C@H]([C@@H](C)O)NC1=O)[C@@H](C)O [DX404],"% IgG Capture - Batch Binding, Human IgG3",IgG3,74%
same,Kd,"human plasma IgG2; 10 nM Tris-HCl, 500 mM Sodium Chloride, pH 7.5, read-out: KD (μM) IgG2 pH 7.5 + salt",> 10 µM
same,Kd,"human plasma IgG2; 10 mM Sodium Bicarbonate, 500 mM Sodium Chloride, pH 9.5, read-out: KD (μM) IgG2 pH 9.5 + salt",> 10 µM
same,Kd,"human plasma IgG2; 10 mM Sodium Bicarbonate, pH 9.5, read-out: KD (μM) IgG2 pH 9.5 − salt",> 10 µM
same,Kd,"human plasma IgG2; 10 mM Sodium Citrate, 500 mM Sodium Chloride, pH 4.0, read-out: KD (μM) IgG2 pH 4.0 + salt",~2 µM and 2 µM
same,Kd,"human plasma IgG2; 10 mM Sodium Citrate, pH 4.0, read-out: KD (μM) IgG2 pH 4.0 − salt",~2 µM
same,Kd,"human plasma IgG1; 10 nM Tris-HCl, 500 mM Sodium Chloride, pH 7.5, read-out: KD (μM) IgG1 pH 7.5 + salt",> 10 µM
same,Kd,"human plasma IgG1; 10 mM Sodium Bicarbonate, 500 mM Sodium Chloride, pH 9.5, read-out: KD (μM) IgG1 pH 9.5 + salt",> 10 µM
same,Kd,"human plasma IgG1; 10 mM Sodium Bicarbonate, pH 9.5, read-out: KD (μM) IgG1 pH 9.5 − salt",> 10 µM
same,Kd,"human plasma IgG1; 10 mM Sodium Citrate, 500 mM Sodium Chloride, pH 4.0, read-out: KD (μM) IgG1 pH 4.0 + salt",~2 µM and 2 µM
same,Kd,"human plasma IgG1; 10 mM Sodium Citrate, pH 4.0, read-out: KD (μM) IgG1 pH 4.0 − salt",~2 µM
same,Kd,"human plasma IgG3 [3]; 10 mM Sodium Bicarbonate, 500 mM Sodium Chloride, pH 9.5, read-out: KD (μM) IgG3 pH 9.5 + salt",> 10 µM
same,Kd,"human plasma IgG3 [3]; 10 mM Sodium Bicarbonate, pH 9.5, read-out: KD (μM) IgG3 pH 9.5 − salt",> 10 µM
same,Kd,"human plasma IgG3 [3]; 10 mM Sodium Citrate, 500 mM Sodium Chloride, pH 4.0, read-out: KD (μM) IgG3 pH 4.0 + salt",0.2 µM
same,Kd,"human plasma IgG3 [3]; 10 mM Sodium Citrate, pH 4.0, read-out: KD (μM) IgG3 pH 4.0 − salt",~0.01 µM and 0.01 µM
same,Kd,"human plasma IgG4; 10 nM Tris-HCl, 500 mM Sodium Chloride, pH 7.5, read-out: KD (μM) IgG4 pH 7.5 + salt",> 10 µM
same,Kd,"human plasma IgG4; 10 mM Sodium Bicarbonate, 500 mM Sodium Chloride, pH 9.5, read-out: KD (μM) IgG4 pH 9.5 + salt",> 10 µM
same,Kd,"human plasma IgG4; 10 mM Sodium Bicarbonate, pH 9.5, read-out: KD (μM) IgG4 pH 9.5 − salt",> 10 µM
same,Kd,"human plasma IgG4; 10 mM Sodium Citrate, 500 mM Sodium Chloride, pH 4.0, read-out: KD (μM) IgG4 pH 4.0 + salt",> 10 µM
same,Kd,"human plasma IgG4; 10 mM Sodium Citrate, pH 4.0, read-out: KD (μM) IgG4 pH 4.0 − salt",> 10 µM
same,Kd,"human plasma IgG4; 10 mM Tris-HCl, pH 7.5, read-out: KD (μM) IgG4 pH 7.5 − salt",> 10 µM
same,"% IgG Capture - Batch Binding, Human IgG",human IgG,30%
same,"% IgG Capture - Batch Binding, Goat IgG",goat IgG,0%
same,"% IgG Capture - Batch Binding, Bovine IgG",bovine IgG,0%
same,"% IgG Capture - Batch Binding, Mouse IgG",mouse IgG,2%
same,"% IgG Capture - Batch Binding, Human IgG1",human IgG1,38%
same,"% IgG Capture - Batch Binding, Human IgG2",human IgG2,11%
same,"% IgG Capture - Batch Binding, Human IgG4",IgG4,10%
